In the test the test system is BDF1 mice, P388 leukemia ip, median survival T/C. Put plainly: NCI In Vivo Anticancer Drug Screen. Data for tumor model P388 Leukemia (intraperitoneal) in B6D2F1 (BDF1) mice. As to conditions: endpoint: median survival time, higher = longer survival. The procedure, abridged: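 Antitumour effect was judged in vivo: survival in drug-treated mice, normalised to that of vehicle-dosed controls, gives the reported T/C.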

Setting [1] is: dose: 50.0 mg/kg/injection, schedule: Q01DX009 (ip), vehicle: saline with Tween-80.
Setting [2] is: dose: 100.0 mg/kg/injection, schedule: Q01DX009 (ip), vehicle: saline with Tween-80.
[3] abbreviates: dose: 200.0 mg/kg/injection, schedule: Q01DX009 (ip), vehicle: saline with Tween-80.
Setting [4] is: dose: 50.0 mg/kg/injection, schedule: Q04DX003 (ip), vehicle: saline with Tween-80.
[5] abbreviates: dose: 100.0 mg/kg/injection, schedule: Q04DX003 (ip), vehicle: saline with Tween-80.
[6] abbreviates: dose: 200.0 mg/kg/injection, schedule: Q04DX003 (ip), vehicle: saline with Tween-80.
The mark [7] stands for this setting: dose: 400.0 mg/kg/injection, schedule: Q04DX003 (ip), vehicle: saline with Tween-80.
Setting [8] is: dose: 400.0 mg/kg/injection, schedule: Q01DX009 (ip), vehicle: saline with Tween-80.

Values joined by “and” are separate entries in the source; they are usually repeats but may differ in a detail not shown here. Equal entries are not always repeated. Toxic doses and inconclusive results are not listed. Starred links: 1 amine or outer side, 2 acyl side, 3 side chain; linkers in the order of their positions; H or OH if unused. Positions of bridges follow the written chain, without caps; N, C: chain ends. Non-standard residues stand in square brackets, D forms with d. Residues, ends and D or L forms follow the SMILES beside them. Chains are numbered I, II in the order given. Actinocin(9to1) = Cc1c2oc3c(C)ccc(C(=O)[*:1])c3nc-2c(C(=O)[*:2])c(N)c1=O; NMeV = CN[CH](C(=O)O)C(C)C; Pip = O=C(O)[CH]1CCCCN1; Sar = CNCC(=O)O

Consider `Cc1c2oc3c(C)ccc(C(=O)NC4C(=O)NC(C(C)C)C(=O)N5CCCCC5C(=O)N(C)CC(=O)N(C)C(C(C)C)C(=O)OC4C)c3nc-2c(C(=O)NC2C(=O)NC(C(C)C)C(=O)N3CCCCC3C(=O)N(C)CC(=O)N(C)C(C(C)C)C(=O)OC2C)c(N)c1=O` (configuration not stated) (I: TV[Pip][Sar][NMeV] / II: TV[Pip][Sar][NMeV]; ester I:1-I:C, II:1-II:C; linker I:N-II:N via Actinocin(9to1); configuration not given here), for which the T/C is 114 % of control (dose: 0.25 mg/kg/injection, schedule: Q01DX009 (ip), vehicle: saline + alcohol); 116 % of control (dose: 0.75 mg/kg/injection, schedule: Q04DX003 (ip), vehicle: saline + alcohol); 162 % of control (dose: 2.0 mg/kg/injection, schedule: Q01DX009 (ip), vehicle: saline + alcohol); 180 % of control (dose: 4.0 mg/kg/injection, schedule: Q01DX009 (ip), vehicle: saline + alcohol); 160 % of control (dose: 6.0 mg/kg/injection, schedule: Q04DX003 (ip), vehicle: saline + alcohol); 155 % of control (dose: 12.0 mg/kg/injection, schedule: Q04DX003 (ip), vehicle: saline + alcohol).

Regarding `Cc1ccc(S)c(S)c1`, the T/C is 97 % of control (dose: 3.12 mg/kg/injection, schedule: Q01DX009 (ip), vehicle: saline); 103 % of control (dose: 6.25 mg/kg/injection, schedule: Q01DX009 (ip), vehicle: saline); 103 % of control (dose: 12.5 mg/kg/injection, schedule: Q01DX009 (ip), vehicle: saline); 112 % of control (dose: 25.0 mg/kg/injection, schedule: Q01DX009 (ip), vehicle: saline).

In the case of `Cc1nc2ccccc2c(=O)n1/N=C/c1ccco1`, the T/C is 107 % of control under setting [1] and 90 % of control under setting [2].

For `ClC1(Cl)OC(Cl)(Cl)C(Cl)(Cl)OC1(Cl)Cl`, the T/C is 95 % of control (dose: 50.0 mg/kg/injection, schedule: Q01DX009 (ip), vehicle: Klucel (hydroxypropylcellulose) (HPC)); 95 % of control (dose: 100.0 mg/kg/injection, schedule: Q01DX009 (ip), vehicle: Klucel (hydroxypropylcellulose) (HPC)); 109 % of control (dose: 200.0 mg/kg/injection, schedule: Q01DX009 (ip), vehicle: Klucel (hydroxypropylcellulose) (HPC)).

Take `CC(=O)n1cc(CCC(=O)O)c2ccccc21`: the T/C reads like this: (dose: 100.0 mg/kg/injection, schedule: Q04DX002 (ip), vehicle: saline with Tween-80) 106 % of control; (dose: 200.0 mg/kg/injection, schedule: Q04DX002 (ip), vehicle: saline with Tween-80) 101 % of control; (dose: 400.0 mg/kg/injection, schedule: Q04DX002 (ip), vehicle: saline with Tween-80) 102 % of control.

With `CC(C)CN1CCOCC1`, the T/C by setting is: (dose: 25.0 mg/kg/injection, schedule: Q04DX003 (ip), vehicle: saline) 95 % of control; (dose: 50.0 mg/kg/injection, schedule: Q04DX003 (ip), vehicle: saline) 108 % of control; (dose: 100.0 mg/kg/injection, schedule: Q04DX003 (ip), vehicle: saline) 95 % of control.

For the molecule `Cc1ccc2c(c1)Sc1ccc3ccccc3c1N2`, the T/C is, setting by setting: (dose: 100.0 mg/kg/injection, schedule: Q04DX003 (ip), vehicle: saline sonified) 113 % of control; (dose: 200.0 mg/kg/injection, schedule: Q04DX003 (ip), vehicle: saline sonified) 90 % of control; (dose: 400.0 mg/kg/injection, schedule: Q04DX003 (ip), vehicle: saline sonified) 100 % of control.

For `CCCN(CCC)CC(O)c1cc(C(F)(F)F)nc2c(C(F)(F)F)cccc12` (configuration not stated), the T/C reads like this: under setting [1], 103 % of control; under setting [2], 100 % of control; under setting [3], 97 % of control.

For `O=C1c2ccccc2C(=O)N1C1CCC(O)CC1` (configuration not stated), the T/C by setting is: (dose: 25.0 mg/kg/injection, schedule: Q01DX009 (ip), vehicle: saline with Tween-80) 109 % of control; (dose: 25.0 mg/kg/injection, schedule: Q04DX003 (ip), vehicle: saline with Tween-80) 104 % of control; under setting [1], 86 % of control; under setting [4], 109 % of control; under setting [2], 90 % of control; under setting [5], 104 % of control.

Turning to `OC(CBr)(c1ccccc1)c1ccccc1`, the T/C was 95 % of control (dose: 12.5 mg/kg/injection, schedule: Q04DX003 (ip), vehicle: saline with Tween-80); 100 % of control and 115 % of control under setting [4]; 99 % of control under setting [5]; 112 % of control under setting [6]; 111 % of control under setting [7].

Take `COc1ccc2ccccc2c1/C=N/N1CCCCC1`: the T/C is 110 % of control under setting [5], 95 % of control under setting [6] and 115 % of control under setting [7].

Turning to `O=C(c1ccccc1Cl)n1c(Cl)c(/C=N\Nc2cccc([N+](=O)[O-])c2)c2ccccc21`, the T/C is 90 % of control (dose: 100.0 mg/kg/injection, schedule: Q04DX002 (ip), vehicle: Klucel (hydroxypropylcellulose) (HPC)); 89 % of control (dose: 200.0 mg/kg/injection, schedule: Q04DX002 (ip), vehicle: Klucel (hydroxypropylcellulose) (HPC)); 90 % of control (dose: 400.0 mg/kg/injection, schedule: Q04DX002 (ip), vehicle: Klucel (hydroxypropylcellulose) (HPC)).

On to `CCCCOC(=O)C(N)Cc1ccc(OC)c(N(CCCl)CCCl)c1` (configuration not stated), for which the T/C (dose: 3.0 mg/kg/injection, schedule: Q04DX003 (ip), vehicle: saline) was 250 % of control and the T/C (dose: 6.0 mg/kg/injection, schedule: Q04DX003 (ip), vehicle: saline) was 108 % of control.

On to `CC(C)SC(=O)C[Si](C)(C)C`, for which the T/C reads like this: under setting [5], 166 % of control; under setting [6], 166 % of control.

Turning to `CC(C)(C)OC(=O)NC(CCCCNC(=O)OCc1ccccc1)C(=O)NC(CCCCNC(=O)OCc1ccccc1)C(=O)NC(CCCCNC(=O)OCc1ccccc1)C(=O)OCc1ccccc1` (configuration not stated), the T/C reads like this: (dose: 50.0 mg/kg/injection, schedule: Q01DX005 (ip), vehicle: saline with Tween-80) 86 % of control; (dose: 200.0 mg/kg/injection, schedule: Q01DX005 (ip), vehicle: saline with Tween-80) 90 % of control.

As for `O=[N+]([O-])c1cccc(OCCOc2ccc(S(=O)(=O)F)cc2)c1`, the T/C is, setting by setting: under setting [5], 100 % of control; under setting [7], 100 % of control.

For the molecule `COc1ccccc1C(=O)c1ccccc1Cc1cccc2ccccc12`, the T/C under setting [1] was 92 % of control, the T/C under setting [2] is 92 % of control, the T/C under setting [3] is 92 % of control and the T/C under setting [8] is 97 % of control.

On to `CC(C)(C)/C([O-])=N/[N+](C)(C)C`, for which the T/C (dose: 50.0 mg/kg/injection, schedule: Q01DX001 (ip), vehicle: saline) was 109 % of control; the T/C (dose: 100.0 mg/kg/injection, schedule: Q01DX001 (ip), vehicle: saline) was 104 % of control; the T/C (dose: 200.0 mg/kg/injection, schedule: Q01DX001 (ip), vehicle: saline) is 104 % of control.

On to `CC(=O)Oc1ccc2c(c1)CCC1C2CCC2(C)C1CCC21CO1` (configuration not stated), for which the T/C by setting is: under setting [1], 90 % of control; under setting [2], 97 % of control; under setting [3], 98 % of control.

For `CC1(C)CC2(C)OC2C2(C1)N=NC(=O)O2` (configuration not stated), the T/C runs as follows: under setting [1], 98 % of control; under setting [2], 107 % of control; under setting [3], 121 % of control.

Regarding `O=C(O)c1cc(S(=O)(=O)F)cc(S(=O)(=O)F)c1`, the T/C is 113 % of control (dose: 25.0 mg/kg/injection, schedule: Q01DX009 (ip), vehicle: alcohol); 116 % of control (dose: 33.0 mg/kg/injection, schedule: Q01DX009 (ip), vehicle: alcohol); 112 % of control (dose: 50.0 mg/kg/injection, schedule: Q01DX009 (ip), vehicle: alcohol).

For the molecule `COc1cc(C(=O)N2CCN(c3ccccc3)CC2)c2ccccc2n1`, the T/C is, setting by setting: (dose: 180.0 mg/kg/injection, schedule: Q01DX010 (ip), vehicle: carboxymethylcellulose (CMC)) 114 % of control; (dose: 266.0 mg/kg/injection, schedule: Q01DX010 (ip), vehicle: carboxymethylcellulose (CMC)) 104 % of control; (dose: 400.0 mg/kg/injection, schedule: Q01DX010 (ip), vehicle: carboxymethylcellulose (CMC)) 104 % of control; (dose: 600.0 mg/kg/injection, schedule: Q01DX010 (ip), vehicle: carboxymethylcellulose (CMC)) 95 % of control.

In the case of `CCC[As](CCC)SC1OC(COC(C)=O)C(OC(C)=O)C(OC(C)=O)C1OC(C)=O` (configuration not stated), the T/C (dose: 50.0 mg/kg/injection, schedule: Q01DX009 (ip), vehicle: saline + alcohol) was 109 % of control.

For `Cc1cc([N+](=O)[O-])c2ccccc2c1N(CC(=O)O)S(=O)(=O)c1ccccc1`, the T/C was 100 % of control under setting [2]; 100 % of control under setting [5]; 112 % of control under setting [3]; 100 % of control under setting [6]; 120 % of control under setting [8]; 121 % of control under setting [7].

On to `CN(C)c1ccc(/C=C/c2ccnc3cc(Cl)ccc23)cc1`, for which the T/C under setting [1] is 118 % of control, the T/C under setting [2] was 100 % of control and the T/C under setting [3] was 93 % of control.

The values above are taken from PubChem BioAssay AID328 (DTP/NCI, 2004).
